Measured values published in patent US8106072B2, “7- (4-substituted-3-cyclopropylaminomethyl-1-pyrrolidinyl) quinolonecarboxylic acid derivative” (Kyorin Pharmaceutical Co., Ltd., priority 2003, dated 2012).
≈ marks a conversion by molar mass, not a printed value.

Columns and labels:
Assay in all cases: In vitro antibacterial activity (MIC, agar plate dilution)
Assay type in all cases: cell-based
[1] = tested on: S. aureus Smith; conditions: Staphylococcus aureus, Mueller-Hinton agar
Method: (§1) The in-vitro antibacterial activity of the compound of the present invention, as measured by the minimum inhibitory concentration (MIC), was determined by the agar plate dilution technique using Mueller-Hinton agar medium. The technique met the criteria specified by the National Committee for Clinical Laboratory Standard (1997) [NCCLS. Methods for Dilution Antibacterial Susceptibility Tests for Bacteria that grow Aerobically—Forth Edition: Approved Standard m7-A4. NCCLS, Villanova, Pa.]. For Streptococcus pneumonia and Enterococcus, the MIC values were determined by using Muller-Hinton agar supplemented with 5% defibrinated horse blood.

[2] = tested on: S. pneumoniae Type III; conditions: Streptococcus pneumoniae, Muller-Hinton agar supplemented with 5% defibrinated horse blood
Method: as §1

[3] = tested on: S. aureus MR5867; conditions: Staphylococcus aureus, S. aureus MR5867 (methicillin-resistant S. aureus), Mueller-Hinton agar
Method: as §1

[4] = tested on: E. faecalis IID682; conditions: Enterococcus faecalis, Muller-Hinton agar supplemented with 5% defibrinated horse blood
Method: as §1

[5] = tested on: S. aureus MS16401; conditions: Staphylococcus aureus, S. aureus MS16401 (quinolone-resistant S. aureus), Mueller-Hinton agar
Method: as §1

MIC [1]	MIC [2]	MIC [3]	MIC [4]	MIC [5]	SMILES
8 µg/mL (≈ 17 µM)	16 µg/mL (≈ 34.1 µM)	8 µg/mL (≈ 17 µM)	125 µg/mL (≈ 266 µM)	8 µg/mL (≈ 17 µM)	O=C(O)c1cn(C2CC2)c2c(OC(F)F)c(N3C[C@H](CNC4CC4)[C@H](F)C3)c(F)cc2c1=O [Example 3, 1-cyclopropyl-7-[(3S,4S)-3-cyclopropylaminomethyl-4-fluoro-1-pyrrolidinyl]-6-fluoro-8-difluoromethoxy-1,4-dihydro-4-oxo-3-quinolinecarboxylic acid]
16 µg/mL (≈ 35.4 µM)	63 µg/mL (≈ 140 µM)	31 µg/mL (≈ 68.7 µM)	500 µg/mL (≈ 1110 µM)	63 µg/mL (≈ 140 µM)	O=C(O)c1cn(C2CC2)c2c(OC(F)F)c(N3C[C@H](CNC4CC4)[C@H](F)C3)ccc2c1=O [Example 4, 1-cyclopropyl-7-[(3S,4S)-3-cyclopropylaminomethyl-4-fluoro-1-pyrrolidinyl]-8-difluoromethoxy-1,4-dihydro-4-oxo-3-quinolinecarboxylic acid]
8 µg/mL (≈ 19.3 µM)	31 µg/mL (≈ 74.6 µM)	16 µg/mL (≈ 38.5 µM)	125 µg/mL (≈ 301 µM)	31 µg/mL (≈ 74.6 µM)	COc1c(N2C[C@H](CNC3CC3)[C@H](F)C2)ccc2c(=O)c(C(=O)O)cn(C3CC3)c12 [Example 2, 1-cyclopropyl-7-[(3S,4S)-3-cyclopropylaminomethyl-4-fluoro-1-pyrrolidinyl]-1,4-dihydro-8-methoxy-4-oxo-3-quinolinecarboxylic acid]
8 µg/mL (≈ 18.6 µM)	31 µg/mL (≈ 72.2 µM)	8 µg/mL (≈ 18.6 µM)	125 µg/mL (≈ 291 µM)	16 µg/mL (≈ 37.3 µM)	COc1c(N2C[C@@H](CNC3CC3)[C@H](C)C2)c(F)cc2c(=O)c(C(=O)O)cn(C3CC3)c12 (relative stereo) [Example 5, 1-cyclopropyl-7-(trans-3-cyclopropylaminomethyl-4-methyl-1-pyrrolidinyl)-6-fluoro-1,4-dihydro-8-methoxy-4-oxo-3-quinolinecarboxylic acid]
31 µg/mL (≈ 75.3 µM)	63 µg/mL (≈ 153 µM)	63 µg/mL (≈ 153 µM)	250 µg/mL (≈ 608 µM)	125 µg/mL (≈ 304 µM)	COc1c(N2C[C@H](CNC3CC3)[C@@H](C)C2)ccc2c(=O)c(C(=O)O)cn(C3CC3)c12 [Example 7, 1-cyclopropyl-7-[(3S,4R)-3-cyclopropylaminomethyl-4-methyl-1-pyrrolidinyl]-1,4-dihydro-8-methoxy-4-oxo-3-quinolinecarboxylic acid]
31 µg/mL (≈ 75.3 µM)	125 µg/mL (≈ 304 µM)	31 µg/mL (≈ 75.3 µM)	500 µg/mL (≈ 1220 µM)	63 µg/mL (≈ 153 µM)	COc1c(N2C[C@@H](CNC3CC3)[C@H](C)C2)ccc2c(=O)c(C(=O)O)cn(C3CC3)c12 [Example 8, 1-cyclopropyl-7-[(3R,4S)-3-cyclopropylaminomethyl-4-methyl-1-pyrrolidinyl]-1,4-dihydro-8-methoxy-4-oxo-3-quinolinecarboxylic acid]
≤ 8 µg/mL	≤ 8 µg/mL	≤ 8 µg/mL	63 µg/mL (≈ 145 µM)	16 µg/mL (≈ 36.9 µM)	COc1c(N2C[C@H](CNC3CC3)[C@@H](F)C2)c(F)cc2c(=O)c(C(=O)O)cn(C3CC3)c12 [Example 9, 1-cyclopropyl-7-[(3S,4R)-3-cyclopropylaminomethyl-4-fluoro-1-pyrrolidinyl]-6-fluoro-1,4-dihydro-8-methoxy-4-oxo-3-quinolinecarboxylic acid]
31 µg/mL (≈ 64.1 µM)	63 µg/mL (≈ 130 µM)	8 µg/mL (≈ 16.5 µM)	250 µg/mL (≈ 517 µM)	63 µg/mL (≈ 130 µM)	COc1c(N2C[C@@H](CNC3CC3)[C@H](C(F)(F)F)C2)c(F)cc2c(=O)c(C(=O)O)cn(C3CC3)c12 (relative stereo) [Example 6, 1-cyclopropyl-7-(trans-3-cyclopropylaminomethyl-4-trifluoromethyl-1-pyrrolidinyl)-6-fluoro-1,4-dihydro-8-methoxy-4-oxo-3-quinolinecarboxylic acid]
8 µg/mL (≈ 18.5 µM)	≤ 8 µg/mL	8 µg/mL (≈ 18.5 µM)	63 µg/mL (≈ 145 µM)	4 µg/mL (≈ 9.23 µM)	COc1c(N2C[C@H](CNC3CC3)[C@H](F)C2)c(F)cc2c(=O)c(C(=O)O)cn(C3CC3)c12 [Example 1, 1-cyclopropyl-7-[(3S,4S)-3-cyclopropylaminomethyl-4-fluoro-1-pyrrolidinyl]-6-fluoro-1,4-dihydro-8-methoxy-4-oxo-3-quinolinecarboxylic acid]
